# Patent publication US7138361B2, “Herbicidal heterocycles” (E. I. du Pont de Nemours and Company, priority 2000, dated 2006)
# Legend:
# Type in all cases: in vivo
# [1] = test system: morning glory (Ipomoea hederacea); assay: Test B preemergence
# Summary of the method: (§1)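 Preemergence: seeds planted and treated with test chemicals in non-phytotoxic solvent with surfactant; postemergence on plants 2–18 cm (1- to 4-leaf stage). Kept in greenhouse 13–15 days, then visually rated against controls on a 0 (no effect) to 100 (complete control) scale.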
# [2] = test system: corn (Zea mays); assay: Test B preemergence
# Summary of the method: as §1
# [3] = test system: lambsquarters (Chenopodium album); assay: Test B preemergence
# Summary of the method: as §1
# [4] = test system: cocklebur (Xanthium strumarium); assay: Test B preemergence
# Summary of the method: as §1
# [5] = test system: crabgrass (Digitaria sanguinalis); assay: Test B preemergence
# Summary of the method: as §1
# [6] = test system: Surinam grass (Brachiaria decumbens); assay: Test B preemergence
# Summary of the method: as §1
# [7] = test system: giant foxtail (Setaria faberii); assay: Test B preemergence
# Summary of the method: as §1
# [8] = test system: barnyardgrass (Echinochloa crus-galli); assay: Test B preemergence
# Summary of the method: as §1
# [9] = test system: pigweed (Amaranthus retroflexus); assay: Test B preemergence
# Summary of the method: as §1
# [10] = test system: rice (Oryza saliva); assay: Test B preemergence
# Summary of the method: as §1
# [11] = test system: velvetleaf (Abutilon theophrasti); assay: Test B preemergence
# Summary of the method: as §1
# [12] = test system: morning glory (Ipomoea hederacea); assay: Test B postemergence; conditions: 13 to 15 days
# Summary of the method: as §1
# [13] = test system: corn (Zea mays); assay: Test B postemergence; conditions: 13 to 15 days
# Summary of the method: as §1
# [14] = test system: lambsquarters (Chenopodium album); assay: Test B postemergence; conditions: 13 to 15 days
# Summary of the method: as §1
# [15] = test system: cocklebur (Xanthium strumarium); assay: Test B postemergence; conditions: 13 to 15 days
# Summary of the method: as §1
# [16] = test system: crabgrass (Digitaria sanguinalis); assay: Test B postemergence; conditions: 13 to 15 days
# Summary of the method: as §1
# [17] = test system: Surinam grass (Brachiaria decumbens); assay: Test B postemergence; conditions: 13 to 15 days
# Summary of the method: as §1
# [18] = test system: giant foxtail (Setaria faberii); assay: Test B postemergence; conditions: 13 to 15 days
# Summary of the method: as §1
# [19] = test system: barnyardgrass (Echinochloa crus-galli); assay: Test B postemergence; conditions: 13 to 15 days
# Summary of the method: as §1
# [20] = test system: pigweed (Amaranthus retroflexus); assay: Test B postemergence; conditions: 13 to 15 days
# Summary of the method: as §1
# [21] = test system: blackgrass (Alopecurus myosuroides); assay: Test B postemergence; conditions: 13 to 15 days
# Summary of the method: as §1
# [22] = test system: wheat (Triticum aestivum); assay: Test B postemergence; conditions: 13 to 15 days
# Summary of the method: as §1
# [23] = test system: velvetleaf (Abutilon theophrasti); assay: Test B postemergence; conditions: 13 to 15 days
# Summary of the method: as §1
# [24] = test system: wild oat (Avena fatua); assay: Test B postemergence; conditions: 13 to 15 days
# Summary of the method: as §1
# [25] = test system: smallflower flatsedge (Cyperus difformis); assay: Test C flooded paddy test; conditions: for Flatsedge plant response rating: Flooded Paddy, scale 0 to 100, 0 no effect, 100 complete control; for Plant response rating, Flatsedge: flooded paddy test, scale 0 to 100 (0 no effect, 100 complete control)
# Summary of the method: (§2)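 Visually assessed vs untreated controls 12–14 d post-treatment (greenhouse). Flooded paddy plants were at the 2-leaf stage; scale 0 = no effect, 100 = complete control.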
# [26] = test system: barnyardgrass (Echinochloa crus-galli); assay: Test C flooded paddy test; conditions: for Barnyardgrass plant response rating: Flooded Paddy, scale 0 to 100, 0 no effect, 100 complete control; for Plant response rating, Barnyardgrass: flooded paddy test, scale 0 to 100 (0 no effect, 100 complete control)
# Summary of the method: as §2
# [27] = test system: rice (Oryza saliva); assay: Test C flooded paddy test; conditions: for Rice plant response rating: Flooded Paddy, scale 0 to 100, 0 no effect, 100 complete control; for Plant response rating, Rice: flooded paddy test, scale 0 to 100 (0 no effect, 100 complete control)
# Summary of the method: as §2
# [28] = test system: duck salad (Heteranthera limosa); assay: Test C flooded paddy test; conditions: for Ducksalad plant response rating: Flooded Paddy, scale 0 to 100, 0 no effect, 100 complete control; for Plant response rating, Ducksalad: flooded paddy test, scale 0 to 100 (0 no effect, 100 complete control)
# Summary of the method: as §2
# [29] = Preemergence, Rate 500 g/ha, scale 0 to 100, 0 no effect, 100 complete control
# [30] = preemergence, Rate 125 g/ha, scale of 0 to 100 where 0 is no effect and 100 is complete control, 13 to 15 days
# [31] = Rate 125 g/ha, scale 0 (no effect) to 100 (complete control)
# [32] = Rate 500 g/ha, scale 0 to 100, 0 is no effect, 100 is complete control
smiles,measurement,setting,value
CC(C)(C)c1ccn(C2CCN(c3cccc(OC(F)(F)C(F)F)c3)C2=O)n1 (stereo not shown) [Compound 48],"Plant response rating, Morningglory",[1]; [29],0
same,"Plant response rating, Morningglory",[1]; [30],0
same,"Plant response rating, Corn",[2]; [29],0
same,"Plant response rating, Corn",[2]; [30],0
same,"Plant response rating, Lambsquarters",[3]; [29],100
same,"Plant response rating, Lambsquarters",[3]; [30],100
same,"Plant response rating, Cocklebur",[4]; [29],0
same,"Plant response rating, Cocklebur",[4]; [30],0
same,"Plant response rating, Crabgrass",[5]; [29],80
same,"Plant response rating, Crabgrass",[5]; [30],0
same,"Plant response rating, Surinam grass",[6]; [29],0
same,"Plant response rating, Surinam grass",[6]; [30],0
same,"Plant response rating, Foxtail, Giant",[7]; [29],0
same,"Plant response rating, Foxtail, Giant",[7]; [30],0
same,"Plant response rating, Barnyardgrass",[8]; [29],0
same,"Plant response rating, Barnyardgrass",[8]; [30],0
same,"Plant response rating, Pigweed",[9]; [29],0
same,"Plant response rating, Pigweed",[9]; [30],0
same,"Plant response rating, Rice",[10]; [29],0
same,"Plant response rating, Rice",[10]; [30],0
same,"Plant response rating, Velvetleaf",[11]; [29],0
same,"Plant response rating, Velvetleaf",[11]; [30],0
same,"Plant response rating, Morningglory",[12]; [31],0
same,"Plant response rating, Morningglory",[12]; [32],0
same,"Plant response rating, Corn",[13]; [31],0
same,"Plant response rating, Corn",[13]; [32],0
same,"Plant response rating, Lambsquarters",[14]; [31],0
same,"Plant response rating, Lambsquarters",[14]; [32],80
same,"Plant response rating, Cocklebur",[15]; [31],0
same,"Plant response rating, Cocklebur",[15]; [32],0
same,"Plant response rating, Crabgrass",[16]; [31],0
same,"Plant response rating, Crabgrass",[16]; [32],0
same,"Plant response rating, Surinam grass",[17]; [31],0
same,"Plant response rating, Surinam grass",[17]; [32],0
same,"Plant response rating, Foxtail, Giant",[18]; [31],0
same,"Plant response rating, Foxtail, Giant",[18]; [32],0
same,"Plant response rating, Barnyardgrass",[19]; [31],0
same,"Plant response rating, Barnyardgrass",[19]; [32],0
same,"Plant response rating, Pigweed",[20]; [31],0
same,"Plant response rating, Pigweed",[20]; [32],0
same,"Plant response rating, Blackgrass",[21]; [31],0
same,"Plant response rating, Blackgrass",[21]; [32],0
same,"Plant response rating, Wheat",[22]; [31],0
same,"Plant response rating, Wheat",[22]; [32],0
same,"Plant response rating, Velvetleaf",[23]; [31],0
same,"Plant response rating, Velvetleaf",[23]; [32],0
same,"Plant response rating, Wild Oat",[24]; [31],0
same,"Plant response rating, Wild Oat",[24]; [32],0
same,Flatsedge plant response rating,[25]; Rate 250 g/ha,100
same,Flatsedge plant response rating,[25]; Rate 500 g/ha,100
same,"Plant response rating, Flatsedge",[25]; Rate 62 g/ha,90
same,"Plant response rating, Flatsedge",[25]; Rate 125 g/ha,90
same,Barnyardgrass plant response rating,[26]; Rate 250 g/ha,100
same,Barnyardgrass plant response rating,[26]; Rate 500 g/ha,100
same,"Plant response rating, Barnyardgrass",[26]; Rate 62 g/ha,20
same,"Plant response rating, Barnyardgrass",[26]; Rate 125 g/ha,40
same,Rice plant response rating,[27]; Rate 250 g/ha,20
same,Rice plant response rating,[27]; Rate 500 g/ha,50
same,"Plant response rating, Rice",[27]; Rate 62 g/ha,0
same,"Plant response rating, Rice",[27]; Rate 125 g/ha,0
same,Ducksalad plant response rating,[28]; Rate 250 g/ha,70
same,Ducksalad plant response rating,[28]; Rate 500 g/ha,90
same,"Plant response rating, Ducksalad",[28]; Rate 62 g/ha,0
same,"Plant response rating, Ducksalad",[28]; Rate 125 g/ha,20
